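Dose response: 5 concentrations. Exposure: 48 h. Format: 96-well plates. Endpoint: linear interpolation; highest concentration if not reached. GI50 is the concentration that inhibits growth by half.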 The source made the active and inactive calls. Rule as the data show it: active = GI50 up to about 1.1 µM and inactive = higher. A value given as a limit tells only on which side of the number the result lay.

Consider 4 compounds from ChEMBL document CHEMBL1201862, “PubChem BioAssay data set” (2004).

Test systems include KM12; SF-295; SK-MEL-2; HCC 2998; RXF 393; M14; SK-MEL-28; CCRF-CEM; NCI/ADR-RES; HCT-15; SN12C; A498; A549; CAKI-1; MDA-N; COLO 205; SK-OV-3; ACHN; SF-539.
What all share (assay): inhibition of tumour cell growth, NCI panel, 48 h

Consider `CC(=O)OC1CCN(C(=O)c2ccccc2)CC1CC1(c2cc3ccccc3[nH]2)OCCO1` (centres undefined), for which the GI50 in the experiment with KM12 is 67.5 µM (inactive); in the experiment on SF-295, 68.5 µM (inactive); with SK-MEL-2, > 100 µM (inactive); with HCC 2998 it was 47.3 µM (inactive); with RXF 393, > 100 µM (inactive); in the experiment with M14, 83.8 µM (inactive). Besides, the GI50 in the experiment on SK-MEL-28 was > 100 µM (inactive); in the experiment on CCRF-CEM, 48.3 µM (inactive); with NCI/ADR-RES it was 51.6 µM (inactive); with HCT-15, 48.3 µM; in the experiment with SN12C it was 84.3 µM (inactive); in the experiment on A498, 26.7 µM (inactive). Also, the GI50 in the experiment on A549 is 50.1 µM (inactive); with CAKI-1, > 100 µM (inactive); with MDA-N it was 39.2 µM (inactive); in the experiment on COLO 205, 53.1 µM (inactive); with SK-OV-3, > 100 µM (inactive); in the experiment on ACHN it was > 100 µM (inactive).
Consider `Clc1ccc(Nc2nn3c(CCCCCCCCc4nnc5sc(Nc6ccc(Cl)cc6)nn45)nnc3s2)cc1`, for which the GI50 in the experiment on SF-539 was > 100 µM (inactive); with KM12, > 100 µM (inactive); in the experiment on SF-295, 36 µM (inactive); with SK-MEL-2 it was > 100 µM (inactive); in the experiment with HCC 2998 it was > 100 µM (inactive); in the experiment on RXF 393, > 100 µM (inactive). The GI50 was > 100 µM (inactive) in the experiment on M14; > 100 µM (inactive) with SK-MEL-28; 17.6 µM (inactive) in the experiment on CCRF-CEM; > 100 µM (inactive) in the experiment with NCI/ADR-RES; more than 100 µM in the experiment with HCT-15; > 100 µM (inactive) in the experiment with SN12C. Further, the GI50 in the experiment with A498, with A549, with CAKI-1, in the experiment on MDA-N, with COLO 205 and with SK-OV-3 was > 100 µM (inactive) each time. In addition, in the experiment on ACHN, the GI50 was > 100 µM (inactive).
In the case of `CC(=O)NNc1nc(C)c(C(/C=C/c2cccc([N+](=O)[O-])c2)=N/NC(=S)NN)s1`, the GI50 in the experiment on SF-539, with KM12, in the experiment with SF-295, in the experiment with SK-MEL-2, in the experiment on HCC 2998 and in the experiment with RXF 393 was > 100 µM (inactive) throughout. Moreover, the GI50 was > 100 µM (inactive) with M14; > 100 µM (inactive) in the experiment on SK-MEL-28; > 100 µM (inactive) with CCRF-CEM; > 100 µM (inactive) with NCI/ADR-RES; more than 100 µM with HCT-15; > 100 µM (inactive) in the experiment with SN12C. The GI50 in the experiment with A498, with A549, in the experiment on CAKI-1, with MDA-N, with COLO 205 and in the experiment on SK-OV-3 was > 100 µM (inactive) each time. Also, the GI50 with ACHN is > 100 µM (inactive).
As for `O=C(O)c1cccc(F)c1C(=O)c1ccc2ccccc2c1`, the GI50 in the experiment on SF-539, with KM12, in the experiment on SF-295, with SK-MEL-2, in the experiment with RXF 393 and in the experiment on M14 was > 100 µM (inactive) each time. Moreover, the GI50 was > 100 µM (inactive) with SK-MEL-28; > 100 µM (inactive) with CCRF-CEM; > 100 µM (inactive) in the experiment on NCI/ADR-RES; more than 100 µM with HCT-15; > 100 µM (inactive) with SN12C; > 100 µM (inactive) in the experiment with A498. The GI50 in the experiment on A549 was > 100 µM (inactive); in the experiment with CAKI-1 it was > 100 µM (inactive); in the experiment with MDA-N, > 100 µM (inactive); with COLO 205, 2.99 µM (inactive); in the experiment on SK-OV-3 it was > 100 µM (inactive); with ACHN, > 100 µM (inactive).
